The text below walks through data of ChEMBL document CHEMBL1149011, “Pulcherralpin, a new diterpene ester from Caesalpinia pulcherrima” (J Nat Prod, 1986).

Structures are written as SMILES. Calls of active or inactive are those of the source. No cut-off for these calls is given here.

One experiment deals with KB. Kind of experiment: Cytotoxicity against human KB cells. Format: functional, cell-based.
In a further experiment the test system is P388. Kind of experiment: Cytotoxicity against mouse P388 cells. Format: functional, cell-based.

As for `COC(=O)C[C@@H]1C(=O)C[C@H]2[C@H]([C@H]1C)[C@@H](O)[C@@H](OC(=O)/C=C/c1ccccc1)[C@@]1(O)C(C)(C)CCC[C@]21C`, the result with KB and with P388 was inactive.
